Measurements from PubChem BioAssay AID214 (DTP/NCI, 2004).
Several values for one entry are separate records, joined by “and”; a condition that tells them apart may be missing. Equal entries are not always repeated. Inconclusive results are not listed.

Tested on: B6C3F1 mice, colon carcinoma 38 s.c., T/C
Assay: NCI In Vivo Anticancer Drug Screen. Data for tumor model Colon Carcinoma 38 (subcutaneous) in B6C3F1 mice
Conditions: higher = larger tumour
Experimental: The antitumor activity of compounds was measured in mice bearing transplantable tumors. Survival or tumor size were measured and the results are expressed as the measurement made in the treated group (T) divided by the measurement made in the vehicle treated control group (C). The tumor model used in this assay is Colon Carcinoma 38 (subcutaneous) in B6C3F1 mice

[1] = endpoint: median tumor weight (est.), dose: 25.0 mg/kg/injection, schedule: Q07DX002 (ip), vehicle: saline with Tween-80
[2] = endpoint: median tumor weight (est.), dose: 50.0 mg/kg/injection, schedule: Q07DX002 (ip), vehicle: saline with Tween-80
[3] = endpoint: median tumor weight (est.), dose: 50.0 mg/kg/injection, schedule: Q07DX002 (ip), vehicle: Klucel (hydroxypropylcellulose) (HPC)
[4] = endpoint: median tumor weight (est.), dose: 100.0 mg/kg/injection, schedule: Q07DX002 (ip), vehicle: Klucel (hydroxypropylcellulose) (HPC)
[5] = endpoint: median tumor weight (est.), dose: 200.0 mg/kg/injection, schedule: Q07DX002 (ip), vehicle: Klucel (hydroxypropylcellulose) (HPC)
[6] = endpoint: median tumor weight (est.), dose: 400.0 mg/kg/injection, schedule: Q07DX002 (ip), vehicle: Klucel (hydroxypropylcellulose) (HPC)
[7] = endpoint: median tumor weight (est.), dose: 100.0 mg/kg/injection, schedule: Q07DX002 (ip), vehicle: saline
[8] = endpoint: median tumor weight (est.), dose: 200.0 mg/kg/injection, schedule: Q07DX002 (ip), vehicle: saline
[9] = endpoint: median tumor weight (est.), dose: 400.0 mg/kg/injection, schedule: Q07DX002 (ip), vehicle: saline
[10] = endpoint: median tumor weight (est.), dose: 200.0 mg/kg/injection, schedule: Q07DX002 (ip), vehicle: saline with Tween-80
[11] = endpoint: median tumor weight (est.), dose: 400.0 mg/kg/injection, schedule: Q07DX002 (ip), vehicle: saline with Tween-80
[12] = endpoint: median tumor weight (est.), dose: 100.0 mg/kg/injection, schedule: Q07DX002 (ip), vehicle: saline with Tween-80

Cc1c2ccccc2c(C)c2c1cc(C(=O)O)c1ccccc12
T/C (endpoint: median tumor weight (est.), dose: 12.5 mg/kg/injection, schedule: Q07DX002 (ip), vehicle: sodium bicarbonate): 66 % of control | T/C (endpoint: median tumor weight (est.), dose: 25.0 mg/kg/injection, schedule: Q07DX002 (ip), vehicle: sodium bicarbonate): 98 % of control | T/C (endpoint: median tumor weight (est.), dose: 50.0 mg/kg/injection, schedule: Q07DX002 (ip), vehicle: sodium bicarbonate): 74 % of control | T/C (endpoint: median tumor weight (est.), dose: 62.5 mg/kg/injection, schedule: Q07DX002 (ip), vehicle: sodium bicarbonate): 112 % of control | T/C (endpoint: median tumor weight (est.), dose: 100.0 mg/kg/injection, schedule: Q07DX002 (ip), vehicle: sodium bicarbonate): 107 % of control | T/C (endpoint: median tumor weight (est.), dose: 125.0 mg/kg/injection, schedule: Q07DX002 (ip), vehicle: sodium bicarbonate): 106 % of control | T/C (endpoint: median tumor weight (est.), dose: 200.0 mg/kg/injection, schedule: Q07DX002 (ip), vehicle: sodium bicarbonate): 108 % of control | T/C (endpoint: median tumor weight (est.), dose: 250.0 mg/kg/injection, schedule: Q07DX002 (ip), vehicle: sodium bicarbonate): 76 % of control | T/C (endpoint: median tumor weight (est.), dose: 500.0 mg/kg/injection, schedule: Q07DX002 (ip), vehicle: sodium bicarbonate): 26 % of control | T/C (endpoint: median tumor weight (est.), dose: 1000.0 mg/kg/injection, schedule: Q07DX002 (ip), vehicle: sodium bicarbonate): 23 % of control

OCC1OC(n2cnc3c(=S)nc[nH]c32)C(O)C1O (centres undefined)
T/C (endpoint: median tumor weight (est.), dose: 250.0 mg/kg/injection, schedule: Q07DX002 (ip), vehicle: suspension in saline): 74 % of control | T/C (endpoint: median tumor weight (est.), dose: 500.0 mg/kg/injection, schedule: Q07DX002 (ip), vehicle: suspension in saline): 31 % of control | T/C (endpoint: median tumor weight (est.), dose: 1000.0 mg/kg/injection, schedule: Q07DX002 (ip), vehicle: suspension in saline): 41 % of control

Cc1cn(C2CC(F)C(CO)O2)c(=O)[nH]c1=O (centres undefined)
T/C (endpoint: median tumor weight (est.), dose: 1800.0 mg/kg/injection, schedule: Q07DX002 (ip), vehicle: saline): 103 % of control

CCN(CC)CCNc1ccc(C)c2sc3ccccc3c(=O)c12
T/C (endpoint: median tumor weight (est.), dose: 50.0 mg/kg/injection, schedule: Q07DX002 (ip), vehicle: suspension in saline): 66 % of control | T/C (endpoint: median tumor weight (est.), dose: 100.0 mg/kg/injection, schedule: Q07DX002 (ip), vehicle: suspension in saline): 42 % of control | T/C (endpoint: median tumor weight (est.), dose: 200.0 mg/kg/injection, schedule: Q07DX002 (ip), vehicle: suspension in saline): 2 % of control

O=[N+]([O-])c1ccc(N(CCO)CCO)c2c1no[n+]2[O-]
T/C [1]: 85 % of control | T/C [2]: 63 % of control

Oc1c(Cl)cc(Cl)cc1C=NCCSc1ccc(Cl)cc1
T/C [3]: 118 % of control | T/C [4]: 81 % of control | T/C [5]: 109 % of control | T/C [6]: 63 % of control

O=C(O)Cc1cccc2c(=O)cc(Cc3ccccc3)oc12
T/C [7]: 60 % of control | T/C [8]: 111 % of control | T/C [9]: 122 % of control

CN(C)CCCNc1c2ccccc2nc2cccc([N+](=O)[O-])c12
T/C (endpoint: median tumor weight (est.), dose: 0.03 mg/kg/injection, schedule: Q07DX002 (ip), vehicle: saline): 104 % of control | T/C (endpoint: median tumor weight (est.), dose: 0.06 mg/kg/injection, schedule: Q07DX002 (ip), vehicle: saline): 79 % of control and 221 % of control

NC(CCC(=O)NC(CS)C(=O)NCC(=O)O)C(=O)O (centres undefined)
T/C (endpoint: median tumor weight (est.), dose: 50.0 mg/kg/injection, schedule: Q07DX002 (ip), vehicle: saline): 89 % of control | T/C [7]: 87 % of control | T/C [8]: 102 % of control | T/C [9]: 88 % of control | T/C (endpoint: median tumor weight (est.), dose: 800.0 mg/kg/injection, schedule: Q07DX002 (ip), vehicle: saline): 113 % of control

Nc1nc(-c2ccccc2)c(Br)c(=O)[nH]1
T/C [10]: 115 % of control | T/C [11]: 87 % of control

O=c1[nH]c(=O)n([C@H]2CCCO2)cc1F
T/C (endpoint: median tumor weight (est.), dose: 80.0 mg/kg/injection, schedule: Q07DX003 (ip), vehicle: Klucel (hydroxypropylcellulose) (HPC)): 51 % of control | T/C (endpoint: median tumor weight (est.), dose: 160.0 mg/kg/injection, schedule: Q07DX003 (ip), vehicle: Klucel (hydroxypropylcellulose) (HPC)): 85 % of control | T/C (endpoint: median tumor weight (est.), dose: 320.0 mg/kg/injection, schedule: Q07DX003 (ip), vehicle: Klucel (hydroxypropylcellulose) (HPC)): 80 % of control | T/C (endpoint: median tumor weight (est.), dose: 640.0 mg/kg/injection, schedule: Q07DX003 (ip), vehicle: Klucel (hydroxypropylcellulose) (HPC)): 25 % of control

CCCCCCCCCCCCCCCCCC(=O)Nc1ccn(C2OC(CO)C(O)C2O)c(=O)n1 (centres undefined)
T/C (endpoint: median tumor weight (est.), dose: 12.5 mg/kg/injection, schedule: Q07DX002 (ip), vehicle: saline with Tween-80): 64 % of control | T/C [1]: 40 % of control | T/C [2]: 49 % of control | T/C [12]: 23 % of control

O=C(O)c1cc(Cc2ccc(O)c(C(=O)O)c2)ccc1O (tested in a mixture with another compound)
T/C (endpoint: median tumor weight (est.), dose: 25.0 mg/kg/injection, schedule: Q07DX002 (ip), vehicle: Klucel (hydroxypropylcellulose) (HPC)): 71 % of control | T/C [3]: 78 % of control | T/C [4]: 70 % of control | T/C [5]: 115 % of control | T/C [6]: 63 % of control

N=c1c(C(=O)OCc2ccccc2)ncc(CCl)n1O
T/C [2]: 76 % of control | T/C [12]: 107 % of control | T/C [11]: 113 % of control | T/C (endpoint: median tumor weight (est.), dose: 800.0 mg/kg/injection, schedule: Q07DX002 (ip), vehicle: saline with Tween-80): 72 % of control

Nc1ccc2c(c1)CN1C(=O)c3ccccc3C1=N2
T/C (endpoint: median tumor weight (est.), dose: 6.25 mg/kg/injection, schedule: Q01DX008 (ip), vehicle: other): 90 % of control | T/C (endpoint: median tumor weight (est.), dose: 12.5 mg/kg/injection, schedule: Q01DX008 (ip), vehicle: other): 69 % of control | T/C (endpoint: median tumor weight (est.), dose: 25.0 mg/kg/injection, schedule: Q01DX008 (ip), vehicle: other): 58 % of control | T/C (endpoint: median tumor weight (est.), dose: 25.0 mg/kg/injection, schedule: Q07DX002 (ip), vehicle: other): 82 % of control and 92 % of control | T/C [1]: 60 % of control | T/C (endpoint: median tumor weight (est.), dose: 50.0 mg/kg/injection, schedule: Q01DX008 (ip), vehicle: other): 21 % of control | T/C [2]: 56 % of control | T/C (endpoint: median tumor weight (est.), dose: 100.0 mg/kg/injection, schedule: Q07DX002 (ip), vehicle: other): 49 % of control | T/C [12]: 60 % of control | T/C (endpoint: median tumor weight (est.), dose: 200.0 mg/kg/injection, schedule: Q07DX002 (ip), vehicle: other): 1 % of control | T/C [10]: 35 % of control | T/C (endpoint: median tumor weight (est.), dose: 355.9 mg/kg/injection, schedule: Q07DX002 (oral), vehicle: DMSO): 74 % of control | T/C (endpoint: median tumor weight (est.), dose: 533.6 mg/kg/injection, schedule: Q07DX002 (oral), vehicle: DMSO): 94 % of control | T/C (endpoint: median tumor weight (est.), dose: 800.0 mg/kg/injection, schedule: Q07DX002 (oral), vehicle: DMSO): 76 % of control | T/C (endpoint: median tumor weight (est.), dose: 1200.0 mg/kg/injection, schedule: Q07DX002 (oral), vehicle: DMSO): 122 % of control | T/C (endpoint: optimum tumor weight change, dose: 86.0 mg/kg/injection, schedule: Q07DX002 (ip), vehicle: saline with Tween-80): 77 % of control | T/C (endpoint: optimum tumor weight change, dose: 144.0 mg/kg/injection, schedule: Q07DX002 (ip), vehicle: saline with Tween-80): 84 % of control | T/C (endpoint: optimum tumor weight change, dose: 240.0 mg/kg/injection, schedule: Q07DX002 (ip), vehicle: saline with Tween-80): 84 % of control | T/C (endpoint: optimum tumor weight change, dose: 400.0 mg/kg/injection, schedule: Q07DX002 (ip), vehicle: saline with Tween-80): 71 % of control

O=C1N[C@@H]2C(=C[C@H](O)[C@@H](O)[C@H]2O)c2cc3c(c(O)c21)OCO3
T/C (endpoint: median tumor weight (est.), dose: 1.25 mg/kg/injection, schedule: Q07DX002 (ip), vehicle: saline with Tween-80): 123 % of control | T/C (endpoint: median tumor weight (est.), dose: 5.0 mg/kg/injection, schedule: Q07DX002 (ip), vehicle: saline with Tween-80): 60 % of control | T/C (endpoint: median tumor weight (est.), dose: 10.0 mg/kg/injection, schedule: Q07DX002 (ip), vehicle: saline with Tween-80): 69 % of control | T/C (endpoint: median tumor weight (est.), dose: 20.0 mg/kg/injection, schedule: Q07DX002 (ip), vehicle: saline with Tween-80): 43 % of control

N[C@@H](Cc1ccc(N(CCCl)CCCl)cc1)C(=O)O
T/C (endpoint: median tumor weight (est.), dose: 1.2 mg/kg/injection, schedule: Q01DX006 (ip), vehicle: saline): 35 % of control | T/C (endpoint: median tumor weight (est.), dose: 1.8 mg/kg/injection, schedule: Q01DX006 (ip), vehicle: saline): 62 % of control | T/C (endpoint: median tumor weight (est.), dose: 2.7 mg/kg/injection, schedule: Q01DX006 (ip), vehicle: saline): 38 % of control | T/C (endpoint: median tumor weight (est.), dose: 4.0 mg/kg/injection, schedule: Q01DX006 (ip), vehicle: saline): 50 % of control
